The source of these data is US20250214960A1, “COMPOUNDS HAVING ACTIVITY OF DEGRADING GSPT1 AND APPLICATION THEREOF” (SHANGHAI MEIZER PHARMACEUTICALS CO., LTD., priority 2021, published 2025).

Read-outs that look alike come from different tables or passages of the source.

The target of this assay is T1, GSPT1 protein (Homo sapiens, UniProt P15170+Q96SW2).
T1 construct: endogenous in cells; host or cells: Jeko-1
As to the kind of experiment: Western blot detection of degradation activity of GSPT1 protein in Jeko-1 cells. In kind it is cell-based. Conditions: for inhibition at 0.1 µM / inhibition at 10 µM / inhibition at 0.01 µM / inhibition at 1 µM: JeKo-1, 24 h, read-out: GSPT1 degradation rate (%). As for the experimental part: Test Example 1: Western Blot Detection of Degradation Activity of GSPT1 Protein by the Compounds
Cell line: Jeko-1 cell line was cultured with an RPMI1640 media containing 20% fetal bovine serum in an incubator at 37° C., 5% CO2, and saturated humidity.
DMSO control group and test compound (concentration shown in the table below) were set up, after processing for 24 hours, the cells were collected, pre-cooled cell lysate was added and left on ice for 10 minutes. The total protein of the cells was extracted, and the protein concentration was measured and quantified using the BCA method. Routine gel preparation, sample loading, electrophoresis were conducted, then the membrane was transferred, and sealed, wherein the primary antibody was diluted with a blocking solution at 1:500-5000. The membrane was immersed in the diluted primary antibody and incubated overnight at 4° C. After rinsing, the secondary antibody was diluted with a sealing solution at 1:10000-20000, the membrane was immersed in the diluted secondary antibody, and incubated at room temperature for 45 minutes. After rinsing, the results were tested on ODYSSEY (Li-COR). GAPDH was used as an internal reference control.
Image J software was used to perform gray level analysis on each band and the degradation rate of GSPT1 protein by the compounds was calculated.
Background: A western blot detects proteins with antibodies after separation by electrophoresis.

T1 sequence (P15170 whole entry): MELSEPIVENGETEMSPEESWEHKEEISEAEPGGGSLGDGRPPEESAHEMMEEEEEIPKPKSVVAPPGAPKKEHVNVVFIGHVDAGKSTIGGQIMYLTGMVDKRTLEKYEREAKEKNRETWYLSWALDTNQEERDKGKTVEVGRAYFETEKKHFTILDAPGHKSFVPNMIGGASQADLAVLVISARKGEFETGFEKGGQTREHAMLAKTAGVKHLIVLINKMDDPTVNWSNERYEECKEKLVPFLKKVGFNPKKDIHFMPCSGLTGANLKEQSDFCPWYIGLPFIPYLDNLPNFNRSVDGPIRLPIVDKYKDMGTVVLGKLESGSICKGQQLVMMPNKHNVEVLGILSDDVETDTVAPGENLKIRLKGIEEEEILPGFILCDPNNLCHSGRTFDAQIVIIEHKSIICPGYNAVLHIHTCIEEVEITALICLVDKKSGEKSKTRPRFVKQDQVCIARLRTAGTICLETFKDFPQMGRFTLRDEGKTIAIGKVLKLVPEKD
T1 sequence (Q96SW2 whole entry): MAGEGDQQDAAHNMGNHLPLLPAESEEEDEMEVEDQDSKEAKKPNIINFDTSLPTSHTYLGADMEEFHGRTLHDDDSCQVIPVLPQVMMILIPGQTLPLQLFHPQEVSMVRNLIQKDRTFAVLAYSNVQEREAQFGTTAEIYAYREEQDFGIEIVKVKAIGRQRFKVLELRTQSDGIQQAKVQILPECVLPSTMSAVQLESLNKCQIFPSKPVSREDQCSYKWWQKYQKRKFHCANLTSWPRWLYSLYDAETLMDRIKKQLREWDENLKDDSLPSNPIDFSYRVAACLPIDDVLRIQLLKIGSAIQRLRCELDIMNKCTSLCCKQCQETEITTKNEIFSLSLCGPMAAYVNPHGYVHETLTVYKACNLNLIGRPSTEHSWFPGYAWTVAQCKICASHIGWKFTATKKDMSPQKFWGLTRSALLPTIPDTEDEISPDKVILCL
T1 sequence (Q16531 whole entry partner): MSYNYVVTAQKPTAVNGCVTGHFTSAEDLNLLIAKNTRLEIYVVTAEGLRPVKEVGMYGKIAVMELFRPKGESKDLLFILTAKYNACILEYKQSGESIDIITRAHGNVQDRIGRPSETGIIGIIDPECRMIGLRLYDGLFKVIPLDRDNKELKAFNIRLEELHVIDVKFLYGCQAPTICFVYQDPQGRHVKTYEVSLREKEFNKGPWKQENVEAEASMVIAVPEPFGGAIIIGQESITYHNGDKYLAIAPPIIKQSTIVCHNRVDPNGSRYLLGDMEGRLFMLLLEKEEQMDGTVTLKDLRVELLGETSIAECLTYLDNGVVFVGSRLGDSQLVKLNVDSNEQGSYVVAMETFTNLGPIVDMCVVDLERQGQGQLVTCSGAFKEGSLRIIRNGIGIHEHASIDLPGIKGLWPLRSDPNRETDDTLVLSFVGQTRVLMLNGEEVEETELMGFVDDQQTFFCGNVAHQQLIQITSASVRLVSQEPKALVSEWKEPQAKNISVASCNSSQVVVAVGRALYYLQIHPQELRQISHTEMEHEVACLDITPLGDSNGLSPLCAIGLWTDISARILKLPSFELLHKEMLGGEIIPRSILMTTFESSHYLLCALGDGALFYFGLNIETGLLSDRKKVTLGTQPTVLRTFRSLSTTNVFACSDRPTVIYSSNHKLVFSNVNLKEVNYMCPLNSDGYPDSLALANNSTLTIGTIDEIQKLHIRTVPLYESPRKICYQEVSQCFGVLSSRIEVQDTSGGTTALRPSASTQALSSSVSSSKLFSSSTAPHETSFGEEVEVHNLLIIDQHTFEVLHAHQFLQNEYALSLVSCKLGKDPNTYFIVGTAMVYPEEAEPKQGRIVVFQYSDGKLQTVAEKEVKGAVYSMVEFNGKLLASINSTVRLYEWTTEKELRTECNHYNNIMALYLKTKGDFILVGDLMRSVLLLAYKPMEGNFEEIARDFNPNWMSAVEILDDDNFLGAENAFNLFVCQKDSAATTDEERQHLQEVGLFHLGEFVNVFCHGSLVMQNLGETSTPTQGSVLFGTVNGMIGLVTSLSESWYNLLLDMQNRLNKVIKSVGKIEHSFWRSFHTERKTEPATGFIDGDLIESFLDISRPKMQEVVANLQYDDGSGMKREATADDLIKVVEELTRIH

In the case of `N[C@H](C(=O)NCc1ccc2c(c1)CN(C1CCC(=O)NC1=O)C2=O)c1ccccc1` (stereo partly shown) [Compound 4-87-2], the inhibition at 0.1 µM (100 nM, Jeko-1 cells, 24 hours) amounted to 21%. Also, under “10 μM, Jeko-1 cells, 24 hours”, the inhibition at 10 µM is 15%.
For `CC(C)(C)OC(=O)N[C@@H](C(=O)NCc1ccc2c(c1)CN(C1CCC(=O)NC1=O)C2=O)c1ccccc1` (stereo partly drawn) [Compound 4-108, Tert butyl ((1R)-2-((2-(2-(2,6-Dioxopiperidin-3-yl)-1-oxoisoindolin-5-yl)methyl)amino)-2-oxo-1-phenylethyl) carbamate], the inhibition at 0.01 µM (10 nM, Jeko-1 cells, 24 hours) was 10%. Besides, where the note is “1 μM, Jeko-1 cells, 24 hours”, the inhibition at 1 µM turned out to be 95%.
In the case of `CC(C)(C)OC(=O)NC(CC(=O)NCc1ccc2c(c1)CN(C1CCC(=O)NC1=O)C2=O)c1ccccc1` (stereo not shown) [Compound 4-130, Tert butyl (3-((2-(2,6-dioxypiperidin-3-yl)-1-oxoisoindolin-5-yl)methyl)amino)-3-oxo-1-phenylpropyl) carbamate], the inhibition at 0.1 µM (100 nM, Jeko-1 cells, 24 hours) was 51%. The inhibition at 10 µM (10 μM, Jeko-1 cells, 24 hours) was 94%.
The corresponding values for `CC(C)(C)OC(=O)NCC(C(=O)NCc1ccc2c(c1)CN(C1CCC(=O)NC1=O)C2=O)c1ccccc1` (stereo not shown) [Compound 4-131] are 96% and 97%.
`CC(C)(C)OC(=O)N[C@H](Cc1ccccc1)C(=O)NCc1ccc2c(c1)CN(C1CCC(=O)NC1=O)C2=O` (stereo partly drawn) [Compound 4-132, Tert butyl ((2R)-1-((2-(2,6-dioxypiperidin-3-yl)-1-oxoisoindoline-5-yl)methyl)amino)-1-oxo-3-phenylpro p-2-yl) carbamate]: the inhibition at 0.1 µM (100 nM, Jeko-1 cells, 24 hours) turned out to be 93%. For the same compound, the inhibition at 10 µM (10 μM, Jeko-1 cells, 24 hours) amounted to 96%.
On the same counts, the results for `CCOC(=O)N[C@H](C(=O)NCc1ccc2c(c1)CN(C1CCC(=O)NC1=O)C2=O)c1ccccc1` (stereo partly drawn) [Compound 4-138, Ethyl ((1S)-2-((2-(2,6-dioxypiperidin-3-yl)-1-oxoisoindoline-5-yl)methyl)amino)-2-oxo-1-phenylethyl) carbamate] are 31% and 88%.
On the same counts, the results for `O=C1CCC(N2Cc3cc(CNC(=O)[C@@H](NC(=O)OCc4ccccc4)c4ccccc4)ccc3C2=O)C(=O)N1` (stereo partly drawn) [Compound 4-139, Benzyl ((1S)-2-((2-(2,6-dioxypiperidin-3-yl)-1-oxoisoindoline-5-yl)methyl)amino)-2-oxo-1-phenylethyl) carbamate] are 98% and 97%.
Take `CC(C)OC(=O)N[C@H](C(=O)NCc1ccc2c(c1)CN(C1CCC(=O)NC1=O)C2=O)c1ccccc1` (stereo partly drawn) [Compound 4-160, Isopropyl ((1S)-2-((2-(2,6-dioxypiperidin-3-yl)-1-oxoisoindoline-5-yl)methyl)amino)-2-oxo-1-phenylethy 1) carbamate]: the inhibition at 0.1 µM was 96% and the inhibition at 10 µM amounted to 89%.
Consider `CC(C)(C)OC(=O)NC[C@@H](Cc1ccccc1)C(=O)NCc1ccc2c(c1)CN(C1CCC(=O)NC1=O)C2=O` (stereo partly drawn) [Compound 4-171, Tert butyl ((2R)-2-benzyl-3-((2-(2,6-dioxypiperidin-3-yl)-1-oxoisoindolin-5-yl)methyl)amino)-3-oxopropyl) carbamate], for which the inhibition at 0.1 µM (100 nM, Jeko-1 cells, 24 hours) turned out to be 29%. Under “10 μM, Jeko-1 cells, 24 hours”, the inhibition at 10 µM was determined as 88%.
For the compound `CC(C)[C@@H]1CC[C@@H](C)C[C@H]1OC(=O)N[C@H](C(=O)NCc1ccc2c(c1)CN(C1CCC(=O)NC1=O)C2=O)c1ccccc1` (stereo partly shown) [Compound 4-175b], the inhibition at 0.01 µM is 98% and the inhibition at 1 µM was found to be 99%.
In the case of `Cc1ccc(S(=O)(=O)N[C@H](C(=O)NCc2ccc3c(c2)CN(C2CCC(=O)NC2=O)C3=O)c2ccccc2)cc1` (stereo partly shown) [Compound 4-176], the inhibition at 0.1 µM (100 nM, Jeko-1 cells, 24 hours) was determined as 35%. In addition, the inhibition at 10 µM (10 μM, Jeko-1 cells, 24 hours) amounted to 53%.
On the same counts, the results for `O=C1CCC(N2Cc3cc(CNC(=O)[C@@H](NC(=O)NCc4ccccc4)c4ccccc4)ccc3C2=O)C(=O)N1` (stereo partly drawn) [Compound 4-184, (2S)-2-(3-benzylurea)-N-((2-(2,6-dioxopyridin-3-yl)-1-oxoisoidoline-5-yl)methyl)-2-phenylacetamide] are 21% and 85%.
As for `CC(C)(C)NC(=O)CNC(Cc1ccccc1)C(=O)NCc1ccc2c(c1)CN(C1CCC(=O)NC1=O)C2=O` (stereo not shown) [Compound 4-186], the inhibition at 0.1 µM (100 nM, Jeko-1 cells, 24 hours) amounted to 26%. For the same compound, where the note is “10 μM, Jeko-1 cells, 24 hours”, the inhibition at 10 µM turned out to be 56%.
On the same counts, the results for `CC(C)(C)NC(=O)NCC(Cc1ccccc1)C(=O)NCc1ccc2c(c1)CN(C1CCC(=O)NC1=O)C2=O` (stereo not shown) [Compound 4-188, 2-Benzyl-3-(3-(tertbutyl)urea)-N-((2-(2,6-dioxypiperidin-3-yl)-1-oxoisoindoline-5-yl)methyl) propionamide] are 32% and 63%.
On the same counts, the results for `COC(C(=O)N[C@H](C(=O)NCc1ccc2c(c1)CN(C1CCC(=O)NC1=O)C2=O)c1ccccc1)c1ccccc1` (stereo partly shown) [Compound 4-199] are 14% and 81%.
With `O=C1CCC(N2Cc3cc(CNC(=O)C(CNC(=O)OC4CCCC4)c4ccccc4)ccc3C2=O)C(=O)N1` (stereo not shown) [Compound 5-3, Cyclopentyl (3-((2-(2,6-dioxypiperidin-3-yl)-1-oxoisoindolin-5-yl)methyl)amino)-3-oxo-2-phenylpropyl) carbamate], the inhibition at 0.1 µM was 76% and the inhibition at 10 µM was 49%.
As to `O=C1CCC(N2Cc3cc(CNC(=O)C(CNC(=O)C4CCCC4)c4ccccc4)ccc3C2=O)C(=O)N1` (stereo not shown) [Compound 5-9], the “GSPT1 degradation rate (%)” value (100 nM, Jeko-1 cells, 24 hours) is given as 45% and the “GSPT1 degradation rate (%)” value (10 μM, Jeko-1 cells, 24 hours) was 93%.
With `O=C1CCC(N2Cc3cc(CNC(=O)C(CNC(=O)Nc4ccccc4)c4ccccc4)ccc3C2=O)C(=O)N1` (stereo not shown) [Compound 5-11, N-((2-(2,6-dioxypiperidin-3-yl)-1-oxoisoindolin-5-yl)methyl)-2-phenyl-3-(3-phenylurea) propionamide], the inhibition at 0.1 µM is 17% and the inhibition at 10 µM came out at 77%.
As to `CC(C)(C)NC(=O)NCC(C(=O)NCc1ccc2c(c1)CN(C1CCC(=O)NC1=O)C2=O)c1ccccc1` (stereo not shown) [Compound 5-12], the inhibition at 0.1 µM (100 nM, Jeko-1 cells, 24 hours) was found to be 18%. Further, the inhibition at 10 µM (10 μM, Jeko-1 cells, 24 hours) is 71%.
`CC(C)(C)C(=O)NCC(C(=O)NCc1ccc2c(c1)CN(C1CCC(=O)NC1=O)C2=O)c1ccccc1` (stereo not shown) [Compound 5-23, N-((2-(2,6-dioxypiperidin-3-yl)-1-oxoisoidoline-5-yl)methyl)-2-phenyl-3-terpentylaminopropionamide]: the inhibition at 0.1 µM (100 nM, Jeko-1 cells, 24 hours) stood at 28%. For the same compound, the inhibition at 10 µM (10 μM, Jeko-1 cells, 24 hours) came out at 93%.
Take `O=C1CCC(N2Cc3cc(CNC(=O)C(CNC(=O)C4CCCCC4)c4ccccc4)ccc3C2=O)C(=O)N1` (stereo not shown) [Compound 5-25]: the inhibition at 0.1 µM (100 nM, Jeko-1 cells, 24 hours) amounted to 58%. Moreover, the inhibition at 10 µM (10 μM, Jeko-1 cells, 24 hours) is 96%.
Regarding `O=C1CCC(N2Cc3cc(CNC(=O)C(CNC(=O)c4ccccc4)c4ccccc4)ccc3C2=O)C(=O)N1` (stereo not shown) [Compound 5-26], the inhibition at 0.1 µM came to 33% and the inhibition at 10 µM amounted to 98%.
As to `O=C1CCC(N2Cc3cc(CNC(=O)C(NC(=O)CC4CCCC4)c4ccccc4)ccc3C2=O)C(=O)N1` (stereo not shown) [Compound 5-29, 2-(2-cyclopentylacetamido)-N-((2-(2,6-dioxopyridin-3-yl)-1-oxoisoidoline-5-yl)methyl)-2-phenylacetamide], the inhibition at 0.1 µM (100 nM, Jeko-1 cells, 24 hours) turned out to be 70%. Where the note is “10 μM, Jeko-1 cells, 24 hours”, the inhibition at 10 µM was found to be 97%.
As for `O=C1CCC(N2Cc3cc(CNC(=O)C(NC(=O)C4CCCC4)c4ccccc4)ccc3C2=O)C(=O)N1` (stereo not shown) [Compound 5-30], the inhibition at 0.1 µM (100 nM, Jeko-1 cells, 24 hours) stood at 59%. Moreover, the inhibition at 10 µM (10 μM, Jeko-1 cells, 24 hours) was 93%.
Consider `CC(C)OC(=O)N[C@@H](Cc1ccccc1)C(=O)NCc1ccc2c(c1)CN(C1CCC(=O)NC1=O)C2=O` (stereo partly drawn) [Compound 5-39, Isopropyl ((2S)-1-(2-(2,6-dioxypiperidin-3-yl)-1-oxoisoindoline-5-yl)methyl)amino)-1-oxo-3-phenylprop-2-yl) carbamate], for which the inhibition at 0.1 µM came to 65.2% and the inhibition at 10 µM amounted to 85.8%.
In the case of `CC(C)(C)OC(=O)N[C@@H](CC(N)=O)C(=O)NCc1ccc2c(c1)CN(C1CCC(=O)NC1=O)C2=O` (stereo partly drawn) [Compound 5-43, Tert butyl ((2S)-4-amino-1-((2-(2,6-dioxypiperidin-3-yl)-1-oxoisoindolin-5-yl)methyl)amino)-1,4-dioxobutane-2-yl) carbamate], the inhibition at 0.1 µM (100 nM, Jeko-1 cells, 24 hours) is 11.6%. The inhibition at 10 µM (10 μM, Jeko-1 cells, 24 hours) was 87.9%.
The corresponding values for `O=C1CCC(N2Cc3cc(CNC(=O)[C@@H](CNC(=O)C4CCCC4)c4ccc(Cl)cc4)ccc3C2=O)C(=O)N1` (stereo partly shown) [Compound 5-52] are 38.1% and 92.7%.
Take `O=C1CCC(N2Cc3cc(CNC(=O)C(CNC(=O)C4CCCC4)c4ccccc4)ccc3C2=O)C(=O)N1` [Compound 5-53, N-((2R)-3-((2-(2,6-dioxypiperidin-3-yl)-1-oxoisoindolin-5-yl)methyl)amino)-3-oxo-2-phen ylpropyl) cyclopentyl Formamide]: under “100 nM, Jeko-1 cells, 24 hours”, the inhibition at 0.1 µM is 26.1%. Further, the inhibition at 10 µM (10 μM, Jeko-1 cells, 24 hours) turned out to be 91.2%.
The corresponding values for `O=C1CCC(N2Cc3cc(CNC(=O)[C@H](CC4CCCCC4)NC(=O)C4CCCC4)ccc3C2=O)C(=O)N1` (stereo partly shown) [Compound 5-54] are 41.3% and 87.1%.
